Experimental data reported in patent US7875604B2, “Compounds that inhibit HIV particle formation” (University of Virginia Patent Foundation, priority 2004, dated 2011).

Tests used:
HeLa = assay: HIV-1 Rev assay toxicity/non-specificity readout (Firefly Luciferase); type: cell-based; conditions: 50% inhibition of Firefly Luciferase (toxicity/non-specificity), 24 hours; read-out: TC50 (the source's name)
Description: The eight compounds listed in Table 1 were also tested in an assay that measured HIV-1 Rev function. The HIV-1 Rev assay is based upon the use of a reporter for detecting whether drug candidates are capable of inhibiting the function of the viral Rev protein. The reporter used for these assays is the Renilla Luciferase protein, which is an enzyme that produces detectable light when mixed with certain chemicals. For this assay, a cell line has been developed in which the production of the reporter by the cells requires the function of HIV-1 Rev. Therefore, if a drug candidate inhibits the function of Rev, it decreases the amount of the reporter produced by the cells. By using Renilla Luciferase as the reporter, the inhibition of Rev is easily detected as a decrease in the amount of light produced by the cells when mixed with the appropriate chemicals. Furthermore, the cell line for this assay has been engineered to use a second similar reporter (Firefly Luciferase) that detects whether drug candidates are toxic.
Compounds were tested in the Rev assay using the maximum high-test concentration possible based on the supplied stocks as shown in Table 3. Compounds were prepared at a 2× high-test concentration by combining drug stock with tissue culture media at a ratio of 5 μL of drug to 995 μL of media. This 2× high-test sample was subsequently serially diluted in tissue culture media using 1/2 log dilutions. This series of 2× concentrated drug was subsequently diluted 1:1 by combining with an equal volume of cells in media in the 96-well plates used for the assay. Representative data for two of the compounds is also depicted in FIG. 5.
Leptomycin B is a control compound known to inhibit Rev function.

U1 cells = assay: MTS staining for cell viability in U1 cell assay; type: cell-based; conditions: Table 6, MTS, read-out: TC50 (the source's name)
Method in brief: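 U1 cells plated with 5 ng/mL TNF-α (final) and compound in 1/2-log dilutions from the highest concentration the stock allowed, then cultured 3 days. Cytotoxicity read by MTS tetrazolium dye reduction at assay end. Assay dropped if Trypan Blue viability was below 70%.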

With “2-chloro-N-(4-methylphenyl)-4-(trifluoromethyl)-1,3-thazole-5-carboxamide [Compound 91161]” the CC50 (HeLa) was greater than 39.5 µM and the CC50 (U1 cells) was 22.3 µM.
